Where “and” joins values, the source holds several entries; their conditions need not be identical. Equal values may be shown once. Marks after values point to notes of the source that are not given here.
Columns and labels:
[1] = pulsating bubble technique ("bubble assay" of Enhorning, Enhorning Surfactometer); format: physicochemical; details: peptide 10% by weight of PL, 37° C., negative pressure, mean of 3; for Pressure Gradient 15″: 15 seconds; for Pressure Gradient 1′: 1 minute; for Pressure Gradient 5′: 5 minutes
Protocol: Measurements of surface pressure across an air-liquid interface (expressed in negative cm of H2O pressure) at minimal (γmin) bubble radius were determined at various times using the pulsating bubble technique described by Enhorning, J. Appl. Physiol. 43: 198-203 (1977).
Briefly, the Enhorning Surfactometer (Surfactometer International, Toronto, Ontario) measures the pressure gradient (ΔP) across a liquid-air interface of a bubble that pulsates at a rate of 20 cycles/min between a maximal (0.55 mm) and minimal (0.4 mm) radius. The bubble, formed in a 37° C., water-enclosed, 20-μl sample chamber, is monitored through a microscopic optic while the pressure changes are recorded on a strip chart recorder calibrated for 0 and −2 cm H2O.
Each of the surfactants identified in Table 5 was assayed for surfactant activity as evidenced by their ability to reduce surface tension in vitro using the “bubble assay” of Enhorning as described above.
After admixture with solvent, each peptide was admixed with phospholipids (PL), DPPC:PG, 3:1, in chloroform in a glass tube so that the amount of polypeptide added equaled one-tenth (10% by. weight) of the amount of PL added, to form a surfactant according to either method A, B or C.
Each of the surfactants was then assayed for surfactant activity as evidenced by their ability to reduce surface tension in vitro in the bubble assay performed as described above. The pressure gradient (ΔP) is a measure of surfactant activity in the polypeptide-PL third admixture which was determined using an Enhorning Surfactometer as described above. Measurements were obtained at time points of 15 seconds (15″), 1 minute (1′) and 5 minutes (5′) and are expressed as a mean of three independent measurements of the indicated polypeptide-PL admixture.

fetal rabbit lung [2] = assay: static compliance, fetal rabbit model; format: in vivo; details: fetal rabbits, after 30 minutes of ventilation, instillation protocols 1 and 5 (FIGS. 2 and 3)
Protocol: A subject polypeptide was first admixed with solvent as described in Example 3. The resulting admixture was further admixed with phospholipid (PL) so that the amount of polypeptide added was either 3%, 7% or 10% by weight of the amount of PL added as indicated below.
Fetal rabbits were treated by injection into the trachea of a 0.1 ml solution that contained either a synthetic surfactant prepared in Example 4A or either 2 mg of native surfactant prepared as described in Example 1 of U.S. Pat. No. 5,260,273 (incorporated by reference herein) or 2 mg PL.
Fetal rabbits were treated by injection into the trachea from a single syringe the following four components such that the four components exit the syringe upon injection in the order listed: (1) 0.2 ml solution that contains either a synthetic surfactant prepared in Example 4A or either 4 mg of native surfactant, or 4 mg PL; (2) a 0.15 ml volume of air; (3) a 0.1 ml normal saline solution; and (4) a 0.3 ml volume of air. The above injection was then repeated 15 minutes after the first injection. […]
Static compliance measurements were made after 30 minutes of ventilation. […] The volume of air required to reach static pressures of 5, 10, 15, 20, 25 and 30 cm H2O was measured during both inflation and deflation phases to generate static pressure to volume curves as a measure of static compliance.

[3] = observation whether peptide/solvent admixture formed a solution or a suspension; format: physicochemical
Protocol: Each polypeptide was admixed with the indicated solvent at a concentration of 2.5 mg of polypeptide per ml of solvent. […] Those admixtures forming a suspension were further admixed by water bath sonication for 10 seconds to form a very fine suspension, sufficient for pipetting using glass pipettes.

fetal rabbit lung [4] = assay: dynamic compliance, fetal rabbit model; format: in vivo; details: single animal per line
Protocol: A subject polypeptide was first admixed with solvent as described in Example 3. […]
Surfactant was instilled in rabbit fetal lung by injection into the trachea from a single syringe of the following three components such that the components exit the syringe in the following order: (1) 0.05 ml air; (2) 0.1 ml of a synthetic surfactant prepared in Example 4A or either 2 mg of PL or 2 mg of native surfactant; and (3) 0.1 ml air.
From one syringe, a 0.1 ml aliquot of synthetic surfactant prepared as described in Example 4A (or 2 mg of NS or of PL), was instilled into the rabbit trachea as described above, followed by injection of 0.05 ml lactated Ringer's Solution and 0.2 ml air from a second syringe.
From one syringe, 0.1 ml of a synthetic surfactant prepared as described in Example 4A (or 2 mg of NS or of PL), 0.15 ml air, 0.1 ml saline, and 0.3 ml air were injected into the trachea as described above. Two subsequent aliquots of 0.3 ml air were given.
The surfactant activity of exemplary polypeptides of this invention was studied using the methods described in detail previously by Revak, et al, Am. Rev. Respir. Dis. 134: […] (1986), with the exceptions noted hereinbelow.
Twenty-seven day gestation fetal rabbits were delivered by hysterotomy and immediately injected with 0.05 ml Norcuron (Organon, Inc., N.J.) to prevent spontaneous breathing. The fetal rabbits were then weighed and a small cannula was inserted into the trachea by tracheotomy surfactant prepared as described above was then instilled into the fetal rabbit lung by one of the above instillation protocols.
Following instillation the rabbit was placed in a specially designed plethysmograph (containing a Celesco transducer) connected to a ventilator (Baby Bird, Baby Bird Corp., Palm Springs, Calif.) and the instilled lung was ventilated at a rate of 30 cycles per minute with a peak inspiratory pressure of 25 cm H2O, a positive end expiratory pressure of 4 cm H2O and an inspiratory time of 0.5 seconds. In some studies, dynamic compliance measurements were made at various times throughout the ventilation procedure. In others, static compliance measurements were made following ventilation.
Using the plethysmograph, dynamic compliance measurements were made at various times throughout a 60 minute ventilation period. […] Compliance was calculated by the formula below. [formula]
The above equation was solved with a multiple linear regression for C and R. The compliance (C) represents the elastic nature of the lungs and the resistance (R) represents the pressure necessary to overcome the resistance to the flow of gas into and out of the lungs.

Row | Sequence | Pressure Gradient 15″ ([1]; PL (DPPC:PG 3:1) 4 mg/ml) | Pressure Gradient 1′ ([1]; PL (DPPC:PG 3:1) 4 mg/ml) | Pressure Gradient 5′ ([1]; PL (DPPC:PG 3:1) 4 mg/ml) | Pressure Gradient 15″ ([1]; PL (DPPC:PG 3:1) 10 mg/ml) | Pressure Gradient 1′ ([1]; PL (DPPC:PG 3:1) 10 mg/ml) | Pressure Gradient 5′ ([1]; PL (DPPC:PG 3:1) 10 mg/ml) | Dynamic Compliance, 10 minutes after surfactant instillation (fetal rabbit lung [4]; 10% peptide to PL, Protocol 4) | Dynamic Compliance, 20 minutes after surfactant instillation (fetal rabbit lung [4]; 10% peptide to PL, Protocol 4) | Dynamic Compliance, 30 minutes after surfactant instillation (fetal rabbit lung [4]; 10% peptide to PL, Protocol 4) | Dynamic Compliance, 40 minutes after surfactant instillation (fetal rabbit lung [4]; 10% peptide to PL, Protocol 4) | Dynamic Compliance, 50 minutes after surfactant instillation (fetal rabbit lung [4]; 10% peptide to PL, Protocol 4) | Dynamic Compliance, 60 minutes after surfactant instillation (fetal rabbit lung [4]; 10% peptide to PL, Protocol 4) | also measured
1 | FPIPLPYCWLCRALI [p1-15] | 0.94 cm of H2O | 0.82 cm of H2O | 0.48 cm of H2O | – | – | – | – | – | – | – | – | – | lung compliance measured by static compliance, compared with PL alone (fetal rabbit lung [2]): did not produce improved lung compliance over PL alone; Admixture Formed ([3]; 2.5 μg of peptide per μl of solvent, solvent n-propyl alcohol): suspension; Admixture Formed ([3]; 2.5 mg of polypeptide per ml of solvent, solvent N-propanol): suspension
2 | ERYSVILLDTLLGRMLPQLVCRLVLRCSMD [p51-80] | – | – | – | 0.92 cm of H2O | 0.89 cm of H2O | 0.48 cm of H2O | 17 ml air/cm H2O (g body weight × 10^6) and 76 ml air/cm H2O (g body weight × 10^6) and 23 ml air/cm H2O (g body weight × 10^6) | 41 ml air/cm H2O (g body weight × 10^6) and 94 ml air/cm H2O (g body weight × 10^6) and 71 ml air/cm H2O (g body weight × 10^6) | 52 ml air/cm H2O (g body weight × 10^6) and 149 ml air/cm H2O (g body weight × 10^6) and 130 ml air/cm H2O (g body weight × 10^6) | 78 ml air/cm H2O (g body weight × 10^6) and 149 ml air/cm H2O (g body weight × 10^6) and 156 ml air/cm H2O (g body weight × 10^6) | 99 ml air/cm H2O (g body weight × 10^6) and 217 ml air/cm H2O (g body weight × 10^6) and 182 ml air/cm H2O (g body weight × 10^6) | 208 ml air/cm H2O (g body weight × 10^6) and 308 ml air/cm H2O (g body weight × 10^6) and 109* ml air/cm H2O (g body weight × 10^6) | Admixture Formed ([3]; 2.5 mg of polypeptide per ml of solvent, solvent 45% chloroform 55% methanol): solution
3 | RYSVILLDTLLGRMLPQLVCRLVLRCSMDD [p52-81] | 1.33 cm of H2O | 1.19 cm of H2O | 0.96 cm of H2O | – | – | – | – | – | – | – | – | – | Dynamic Compliance, 30 minutes after surfactant instillation (fetal rabbit lung [4]; 5% peptide to PL, Protocol 3): 517 ml air/cm H2O (g body weight × 10^6) and 434 ml air/cm H2O (g body weight × 10^6); Dynamic Compliance, 60 minutes after surfactant instillation (fetal rabbit lung [4]; 5% peptide to PL, Protocol 3): 226* ml air/cm H2O (g body weight × 10^6) and 55* ml air/cm H2O (g body weight × 10^6); Dynamic Compliance, 30 minutes after surfactant instillation (fetal rabbit lung [4]; 10% peptide to PL, Protocol 2): 195 ml air/cm H2O (g body weight × 10^6) and 43 ml air/cm H2O (g body weight × 10^6); Dynamic Compliance, 60 minutes after surfactant instillation (fetal rabbit lung [4]; 10% peptide to PL, Protocol 2): 1,243 ml air/cm H2O (g body weight × 10^6) and 1,690 ml air/cm H2O (g body weight × 10^6); Admixture Formed ([3]; 2.5 μg of peptide per μl of solvent, solvent methanol:H2O): suspension; Admixture Formed ([3]; 2.5 mg of polypeptide per ml of solvent, solvent 67% DMF 33% chloroform): solution
4 | ERYSVILLDTLLGRMLPQLVCRLVLR [p51-76] | – | – | – | 0.99 cm of H2O | 0.91 cm of H2O | 0.42 cm of H2O | 33 ml air/cm H2O (g body weight × 10^6) and 10 ml air/cm H2O (g body weight × 10^6) and 15 ml air/cm H2O (g body weight × 10^6) | 22 ml air/cm H2O (g body weight × 10^6) and 11 ml air/cm H2O (g body weight × 10^6) and 36 ml air/cm H2O (g body weight × 10^6) | 56 ml air/cm H2O (g body weight × 10^6) and 186 ml air/cm H2O (g body weight × 10^6) and 109 ml air/cm H2O (g body weight × 10^6) | 87 ml air/cm H2O (g body weight × 10^6) and 358 ml air/cm H2O (g body weight × 10^6) and 241 ml air/cm H2O (g body weight × 10^6) | 124 ml air/cm H2O (g body weight × 10^6) and 141 ml air/cm H2O (g body weight × 10^6) and 264 ml air/cm H2O (g body weight × 10^6) | 85 ml air/cm H2O (g body weight × 10^6) and 144* ml air/cm H2O (g body weight × 10^6) and 301 ml air/cm H2O (g body weight × 10^6) | Admixture Formed ([3]; 2.5 mg of polypeptide per ml of solvent, solvent 37% chloroform 63% methanol): solution
